Experimental data as given in US4039652A, “Column method of immunoassay employing an immobilized binding partner” (Miles Laboratories, Inc., priority 1973, dated 1977).

Tests used:
[1] = tested on: digitoxin antibodies; test: Column radioimmunoassay for digitoxin, Example 4; assay type: binding, rabbit; conditions: control = 100%, PBS buffer with 0.1% Tween 20
Procedure: 90 mg of digitoxin was suspended in 4 ml of ethanol at ambient temperature. 4 ml of a 0.1M sodium metaperiodate solution was added dropwise. The resulting solution was stirred for 25 minutes and 4 drops of 0.1M ethylene glycol was added. This solution was slowly added to 130 mg of bovine serum albumin in 4 ml of water previously adjusted to pH 9.5 with 5% K2 CO3. The pH was maintained between 9.0 and 9.5 with 5% K2 CO3. After 45 minutes, 0.05 g of NaBH4 in 4 ml of water was added. After 3 hours the pH was lowered to 6.5 with 1M formic acid. After 1 hour, the pH was raised to pH 8.5 with 1M NH4 OH and the mixture was dialyzed against distilled water overnight at 4° C. The next day, the suspension was centrifuged for 2 hours at 1500 rpm. The supernatant was concentrated to 6 ml in an Amicon U-2 ultrafilter, available from Amicon Corporation, Lexington, Massachusetts, and lyophilized.
The same procedure as described in Example 3 was followed except that the digitoxin-bovine serum albumin conjugate was prepared according to the method described in procedure a. above and this conjugate was dissolved in a few drops of dilute NaOH before being mixed with the PBS buffer.
The same procedure as described in Example 3 was followed.
The same procedure as described in Example 3 was followed except that the columns were equilibrated with 10 ml of PBS buffer containing 0.1% Tween 20, a detergent available from the Atlas Powder Company, Wilmington, Delaware, and that PBS buffer containing 0.1% Tween 20 was used in place of PBS buffer. The standard digitoxin solutions were prepared to the following concentrations: 5 ng/ml, 10 ng/ml, 20 ng/ml, 30 ng/ml, 40 ng/ml, and 50 ng/ml.
The results were as follows (with % bound being calculated based on setting 100% bound as the % bound of the control): […]

[2] = tested on: digoxin antibodies; test: Column radioimmunoassay for digoxin (competition with 3-0-succinyl digoxigenin tyrosine 125I); assay type: binding, rabbit; conditions: control = 100%, 30 + 30 minutes, pH 7.0
Procedure: 400 mg of digoxin was suspended in 20 ml of absolute ethanol at ambient temperature. 0.45 g of sodium metaperiodate in 20 ml of water was added dropwise with stirring. After 25 minutes, 0.5 ml of 1M ethylene glycol was added. Five minutes later, this reaction mixture was added dropwise with stirring to 560 mg of bovine serum albumin in 20 ml of water previously adjusted to pH 9.5 with 5% K2 CO3. The pH was maintained between 9.0 and 9.5 by the dropwise addition of 5% K2 CO3. After 45 minutes 0.3 g of sodium borohydride in 20 ml of water was added. Three hours later, the pH was lowered to 6.5 with 1M formic acid. After 1 hour, the pH was raised to 8.5 with 1M NH4 OH. The entire reaction mixture was then dialyzed against distilled water overnight at 4° C. The next day, the pH was lowered to 4.5 with 0.1N HCl. After 1 hour at ambient temperature and 3 hours at 4° C., the suspension was centrifuged for 1 hour at 1500 rpm. The precipitate was dissolved in 21 ml of 0.15M NaHCO3, dialyzed against distilled water for 4 days, and lyophilized.
Rabbits were injected with inocula consisting of a 50/50 mixture of 4 mg/ml digoxin-bovine serum albumin conjugate, prepared according to the method described in procedure a., in 0.0075M phosphate-0.15M NaCl buffer (pH 7.0) and Freund's complete adjuvant. Four sites along the neck and back of the animals and each footpad were injected with 0.1 ml of this mixture. This procedure was repeated on the first and third weeks. Also, every second week the rabbits were injected intramuscularly with 0.4 ml of the inoculum. At one month intervals, ear bleedings were taken.
One (1.0) gram of CNBr-activated Sepharose 4B available from Pharmacia AB, Uppsala, Sweden, was added to 200 ml of 0.001N HCl, mixed for 15 minutes, and filtered under vacuum. The swollen Sepharose 4B was then washed with 200 ml of PBS buffer (0.0075 M phosphate-0.15M NaCl, pH 7.0) and resuspended in 3.0 ml of PBS buffer. Whole, unfractionated, diluted antiserum from procedure b. was added with stirring. The reaction mixture was stirred for 2 hours at ambient temperature and then for 22 hours at 4° C. The antibody-coupled Sepharose 4B suspension was washed with 400 ml of PBS buffer and an equal volume of PBS buffer containing 0.1% NaN3 was added. This mixture was in turn diluted with the addition of a 50% suspension of Sepharose 4B in distilled water to give a final dilution of antibody-coupled Sepharose 4B which would bind about half of the radioactive labeled antigen following procedure d. below where the fluid sample tested contained no digoxin. Two (2.0) ml volumes of the diluted antibody-coupled Sepharose 4B were added to 3 ml plastic Stylex syringes, available from Pharmaseal Laboratories, Glendale, California, fitted with polyethylene support disks to give 1 ml Sepharose 4B columns.
The columns were then equilibrated with 10 ml volumes of PBS buffer and allowed to drain. Standard digoxin solutions were prepared for the following digoxin concentrations: 0.5 ng/ml, 1.0 ng/ml, 2.0 ng/ml, 3.0 ng/ml, 4.0 ng/ml, and 5.0 ng/ml. A control containing no digoxin and the six digoxin standards were added to columns prepared according to procedure c. above in 0.5 ml volumes and allowed to incubate for 30 minutes. The reference sample containing 3-0-succinyl digoxigenin tyrosine ^125 I solution was then added to each column in 0.5 ml portions and allowed to incubate for 30 minutes. The columns were then counted using a Gammacord gamma counter. The columns were washed three times with 3.0 ml volumes of PBS buffer and counted again. The results were as follows (with % bound being calculated based on setting 100% as the % bound of the control): […]

[3] = tested on: HPL antibodies; test: Column saturation radioimmunoassay for human placental lactogen (competition with 125I-HPL), Example 2; assay type: binding, rabbit; conditions: control = 100%, 30 minutes, pH 8.0
Procedure: Rabbits were injected with priming inocula consisting of a 50/50 mixture of 2.8 mg/ml HPL antigen in physiological saline solution (0.9%) and Freund's complete adjuvant. Each footpad was injected with 0.2 ml of this mixture. On days 21, 23, 56, 58, 91, 93, 126 and 128, 0.5 ml of booster inocula per day was injected intravenously into the animals. The booster inocula consisted of 0.7 mg/ml HPL antigen in physiological saline solution. Test bleedings were made on days 36 and 70, and on day 140 the animals were exsanguinated
The columns were prepared as in Example 1 using whole unfractionated HPL antiserum from procedure a. above.
The procedure as in Example 1c. was followed except that the borate-human serum albumin buffer was prepared to pH 8.0, the incubation times were 30 minutes, and the reference sample contained HPL labeled with ^125 I. […] The results were as follows (with % bound being calculated based on setting 100% bound as the % bound of the control): […]

[4] = tested on: HPL antibodies; test: Column enzyme immunoassay for HPL with peroxidase labeled HPL, Example 6; assay type: binding; conditions: for % Color Bound: control = 100; for OD460: optical density of washings at 460 nm (control 1.2)
Procedure: HPL was labeled with peroxidase according to the method described in Immunochemistry 6: 43(1969) with the following modifications: 10 mg (HPL and 10 mg horseradish peroxidase were dissolved in 1.4 ml of 0.05M carbonate buffer (pH 9), 0.05 ml of 3% glutaraldehyde solution was added to the mixture. The mixture was then rotated at ambient temperature for 90 minutes and then dialyzed against 128 ml of 0.1M borate buffer (pH 8) with several buffer changes.
The same procedure as in Example 1b was followed.
The packed columns were equilibrated by adding 20 ml portions of a borate buffer (pH 9) to the columns and allowing them to drain. The borate buffer was prepared as in Example 1c. HPL standards were prepared for the following HPL concentrations 1000 ng/ml and 62 ng/ml. A control containing no HPL and the two HPL standards were added to columns, prepared according to procedure b above in 0.5 ml volumes and allowed to incubate for 25 minutes. The reference sample containing peroxidase labeled HPL, prepared as in procedure a. above, was then added to each column in 0.5 ml portions and allowed to incubate for 25 minutes. The columns were washed with 10 ml volumes of 0.1M borate buffer (pH 8) followed by 3 ml volumes of 0.1M phosphate buffer (pH 6). A substrate-indicator solution, prepared by mixing 0.28 ml of 0.03% H2 O2 in water, 0.1 ml of 0.25% 3,3'-dimethylbenzidine, and 0.12 ml of 0.1M phosphate buffer (pH 6), was added to each column and allowed to incubate for 10 minutes. The columns were each washed with a 3 ml of volume of 0.1N HCl and the optical density (OD) of the washings were read at 460 nm with the following results: […]

C[C@H]1O[C@@H](O[C@H]2[C@@H](O)C[C@H](O[C@H]3[C@@H](O)C[C@H](O[C@H]4CC[C@@]5(C)[C@H](CC[C@@H]6[C@@H]5CC[C@]5(C)[C@@H](C7=CC(=O)OC7)CC[C@]65O)C4)O[C@@H]3C)O[C@@H]2C)C[C@H](O)[C@@H]1O [Digitoxin, digitoxin]
% Bound ([1]; Digitoxin concentration 5.0 ng/ml): 83%
% Bound ([1]; Digitoxin concentration 10.0 ng/ml): 73.5%
% Bound ([1]; Digitoxin concentration 20.0 ng/ml): 64%
% Bound ([1]; Digitoxin concentration 30.0 ng/ml): 56.6%
% Bound ([1]; Digitoxin concentration 40.0 ng/ml): 50.2%
% Bound ([1]; Digitoxin concentration 50.0 ng/ml): 42%

C[C@H]1O[C@@H](O[C@H]2[C@@H](O)C[C@H](O[C@H]3[C@@H](O)C[C@H](O[C@H]4CC[C@@]5(C)[C@H](CC[C@@H]6[C@@H]5C[C@@H](O)[C@]5(C)[C@@H](C7=CC(=O)OC7)CC[C@]65O)C4)O[C@@H]3C)O[C@@H]2C)C[C@H](O)[C@@H]1O [Digoxin, digoxin]
% Bound ([2]; Digoxin concentration 0.5 ng/ml): 92%
% Bound ([2]; Digoxin concentration 1.0 ng/ml): 79.5%
% Bound ([2]; Digoxin concentration 2.0 ng/ml): 60.2%
% Bound ([2]; Digoxin concentration 3.0 ng/ml): 49.0%
% Bound ([2]; Digoxin concentration 4.0 ng/ml): 41.3%
% Bound ([2]; Digoxin concentration 5.0 ng/ml): 34.7%

B1: HPL: human placental lactogen (HPL) (protein, UniProt P0DML2 27-217, looked up)
Chorionic somatomammotropin …: VQTVPLSRLFDHAMLQAHRAHQLAIDTYQEFEETYIPKDQKYSFLHDSQTSFCFSDSIPTPSNMEETQQKSNLELLRISLLLIESWLEPVRFLRSMFANNLVYDTSDSDDYHLLKDLEEGIQTLMGRLEDGSRRTGQILKQTYSKFDTNSHNHDALLKNYGLLYCFRKDMDKVETFLRMVQCRSVEGSCGF
% Bound (labeled HPL) ([3]; HPL concentration 1 ng/ml): 98%
% Bound (labeled HPL) ([3]; HPL concentration 15 ng/ml): 70%
% Bound (labeled HPL) ([3]; HPL concentration 62 ng/ml): 42%
% Bound (labeled HPL) ([3]; HPL concentration 1000 ng/ml): 9%
% Color Bound ([4]; HPL concentration 62 ng/ml): 63%
OD460 ([4]; HPL concentration 62 ng/ml): 0.96
% Color Bound ([4]; HPL concentration 1000 ng/ml): 35%
OD460 ([4]; HPL concentration 1000 ng/ml): 0.78
